Data reported in US8680290B2, “Isoxazoline derivatives and their use as herbicides” (Syngenta Limited, priority 2004, dated 2014).

Columns and labels:
[1] = system: Monocotyledonous and dicotyledonous test plants; assay: Example B1 herbicidal action, application post-emergence (Table B1a); format: in vivo; settings: 250 g/ha, evaluated after 3 weeks, scale 0-10
Protocol: Monocotyledonous and dicotyledonous test plants were sown in seed trays in standard soil. Immediately after sowing (pre-emergence) or after 8 to 9 days cultivation (post-emergence), the test compounds were applied by spraying in the form of an aqueous solution derived from the formulation of the technical active ingredient in 0.6 ml acetone and 45 ml formulation solution containing 10.6% Emulsogen EL (CAS RN 61791-12-6), 42.2% N-methylpyrrolidone, 42.2% dipropylene glycol monomethyl ether (CAS RN 34590-94-8) and 0.2% X-77 (CAS RN 11097-66-8). The test plants were then grown in a greenhouse under optimum conditions. After a test duration of 3 weeks (post-emergence) or 4 weeks (pre-emergence), the test was evaluated (10=total damage to plant, 0=no damage to plant).

[2] = system: Monocotyledonous and dicotyledonous test plants; assay: Example B1 herbicidal action, application pre-emergence (Table B1b); format: in vivo; settings: 250 g/ha, evaluated after 4 weeks
Summary of the method: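 Visual damage rating, 10 = plant dead and 0 = unharmed, taken at 3 weeks for post-emergence and 4 weeks for pre-emergence treatment. Application by spray of formulated aqueous solution either immediately after sowing or at 8–9 days' growth, with mono- and dicot plants kept in a greenhouse.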

Compound | herbicidal damage rating, Abutilon [1] | herbicidal damage rating, Amaranthus [1] | herbicidal damage rating, Digitaria [1] | herbicidal damage rating, Panicum [1] | herbicidal damage rating, Setaria [1] | herbicidal damage rating, Sida [1] | herbicidal action (damage rating 0-10), Amaranthus [2] | herbicidal action (damage rating 0-10), Digitaria [2] | herbicidal action (damage rating 0-10), Panicum [2] | herbicidal action (damage rating 0-10), Setaria [2] | herbicidal action (damage rating 0-10), Sida [2]
C=C(OC(C)=O)C(F)(c1c(F)cccc1F)S(=O)(=O)C1=NOC(C)(C)C1 (racemic) [Compound No. 1.62] | 4 | 2 | 7 | 8 | 6 | 5 | 10 | 9 | 10 | 10 | 8
CC1(C)CC(S(=O)(=O)C(C)(F)c2c(F)cccc2F)=NO1 (centres unmarked) [1.55] | 5 | 3 | 6 | 5 | 7 | 3 | 9 | 10 | 10 | 10 | 5
CC1(C)CC(S(=O)(=O)C(F)(F)c2ccccc2C(F)(F)F)=NO1 [1.65] | 2 | 0 | 8 | 7 | 5 | 2 | 10 | 10 | 10 | 10 | 8
CC1(C)CC(S(=O)(=O)C(F)(F)c2ccccc2OC(F)F)=NO1 [1.66] | 8 | 5 | 8 | 5 | 7 | 5 | 10 | 10 | 10 | 10 | 9
CC1(C)CC(S(=O)(=O)C(F)(F)c2ccccc2OC(F)(F)F)=NO1 [1.67] | 4 | 3 |  | 3 | 5 | 4 | 10 | 10 | 10 | 10 | 9
CC1(C)CC(S(=O)(=O)C(F)(F)c2ccccc2SC(F)(F)F)=NO1 [1.70] | 5 | 2 | 8 | 5 | 7 | 5 | 10 | 10 | 10 | 10 | 8
